Assay results: the NIST ThermoML archive (doi:10.1021/je1012789)

Test: mn = molality of the nth substance listed, in mol/kg
Details: 101 kPa, Liquid

[Br-].[K+] [potassium bromide] + O
Details	mass density [kg/m3]	speed of sound [m/s]	viscosity [mPa·s]
293.15 K, m1 = 0.2	1015.19	1487	0.985
293.15 K, m1 = 0.3	1023.34	1488.9	0.975
293.15 K, m1 = 0.4	1031.61	1490.9	0.97
293.15 K, m1 = 0.5	1039.7	1492.8	0.97
293.15 K, m1 = 0.6	1047.69	1493.4	0.95
293.15 K, m1 = 0.7	1055.7	1497.1	0.936
298.15 K, m1 = 0.2	1013.8	1500.6	0.873
298.15 K, m1 = 0.3	1022.08	1503.2	0.863
298.15 K, m1 = 0.4	1030.17	1504	0.86
298.15 K, m1 = 0.5	1038.34	1506.5	0.857
298.15 K, m1 = 0.6	1046.11	1506	0.846
298.15 K, m1 = 0.7	1054.22	1509.1	0.832
303.15 K, m1 = 0.2	1012.3	1512.5	0.782
303.15 K, m1 = 0.3	1020.51	1514.2	0.772
303.15 K, m1 = 0.4	1028.56	1516	0.769
303.15 K, m1 = 0.5	1036.79	1517.2	0.765
303.15 K, m1 = 0.6	1044.6	1517.9	0.76
303.15 K, m1 = 0.7	1052.52	1520.4	0.74
308.15 K, m1 = 0.2	1010.63	1523.4	0.698
308.15 K, m1 = 0.3	1018.9	1524.6	0.688
308.15 K, m1 = 0.4	1026.73	1526.4	0.682
308.15 K, m1 = 0.5	1035	1527.7	0.678
308.15 K, m1 = 0.6	1042.99	1527.8	0.674
308.15 K, m1 = 0.7	1050.61	1529.6	0.664
313.15 K, m1 = 0.2	1008.74	1532.3	0.622
313.15 K, m1 = 0.3	1016.99	1532.8	0.612
313.15 K, m1 = 0.4	1024.78	1534.7	0.608
313.15 K, m1 = 0.5	1032.88	1535.5	0.605
313.15 K, m1 = 0.6	1041.01	1535.9	0.602
313.15 K, m1 = 0.7	1048.62	1538.1	0.595
